Earlier results on 1 molecule are cited in patent US20240415846A1, “METHOD OF TREATING AMYOTROPHIC LATERAL SCLEROSIS AND DOSING REGIMEN FOR SAME” (Woolsey Pharmaceuticals, Inc., priority 2021, published 2024).

The conditions of the data set: 1-hydroxy (M3) metabolite formed in vivo; Shibuya 2001; cited from earlier work.

With `O=S(=O)(c1cccc2c(O)nccc12)N1CCCNCC1` [M3], the half-life entry is “about 8 hours”.
